Source: PubChem BioAssay AID270 (DTP/NCI, 2004)
Values joined by “and” are separate entries in the source; they are usually repeats but may differ in a detail not shown here. Equal entries are not always repeated. Results filed as inconclusive are left out.

System: BDF1 mice, s.c. Lewis lung carcinoma, T/C %
Assay: NCI In Vivo Anticancer Drug Screen. Data for tumor model Lewis Lung Carcinoma (subcutaneous) in B6D2F1 (BDF1) mice
Experimental: The antitumor activity of compounds was measured in mice bearing transplantable tumors. Survival or tumor size were measured and the results are expressed as the measurement made in the treated group (T) divided by the measurement made in the vehicle treated control group (C). The tumor model used in this assay is Lewis Lung Carcinoma (subcutaneous) in B6D2F1 (BDF1) mice

[1] = endpoint: median survival time, dose: 1.25 mg/kg/injection, schedule: Q01DX009 (ip), vehicle: Klucel (hydroxypropylcellulose) (HPC), higher = longer survival
[2] = endpoint: median survival time, dose: 2.5 mg/kg/injection, schedule: Q01DX009 (ip), vehicle: Klucel (hydroxypropylcellulose) (HPC), higher = longer survival

Structure (SMILES): CC[CH2][Pb]([Cl])([CH2]CC)[CH2]CC
- T/C (endpoint: median survival time, dose: 0.01 mg/kg/injection, schedule: Q01DX009 (ip), vehicle: DMSO, higher = longer survival): 101 % of control
- T/C (endpoint: median survival time, dose: 0.02 mg/kg/injection, schedule: Q01DX009 (ip), vehicle: DMSO, higher = longer survival): 93 % of control
- T/C (endpoint: median survival time, dose: 0.04 mg/kg/injection, schedule: Q01DX009 (ip), vehicle: DMSO, higher = longer survival): 98 % of control
- T/C (endpoint: median survival time, dose: 0.04 mg/kg/injection, schedule: Q01DX009 (ip), vehicle: Klucel (hydroxypropylcellulose) (HPC), higher = longer survival): 94 % of control
- T/C (endpoint: median survival time, dose: 0.08 mg/kg/injection, schedule: Q01DX009 (ip), vehicle: DMSO, higher = longer survival): 107 % of control
- T/C (endpoint: median survival time, dose: 0.09 mg/kg/injection, schedule: Q01DX009 (ip), vehicle: Klucel (hydroxypropylcellulose) (HPC), higher = longer survival): 106 % of control
- T/C (endpoint: median survival time, dose: 0.18 mg/kg/injection, schedule: Q01DX009 (ip), vehicle: Klucel (hydroxypropylcellulose) (HPC), higher = longer survival): 100 % of control
- T/C (endpoint: median survival time, dose: 0.37 mg/kg/injection, schedule: Q01DX009 (ip), vehicle: DMSO, higher = longer survival): 108 % of control
- T/C (endpoint: median survival time, dose: 0.37 mg/kg/injection, schedule: Q01DX009 (ip), vehicle: Klucel (hydroxypropylcellulose) (HPC), higher = longer survival): 104 % of control

Structure (SMILES): O=NN(CCCl)C(=O)Nc1ccc(CCCl)cc1
- T/C (endpoint: mean tumor weight, dose: 1.5 mg/kg/injection, schedule: Q01DX001 (ip), vehicle: carboxymethylcellulose (CMC), higher = larger tumour): 91 % of control
- T/C (endpoint: mean tumor weight, dose: 3.0 mg/kg/injection, schedule: Q01DX001 (ip), vehicle: carboxymethylcellulose (CMC), higher = larger tumour): 106 % of control
- T/C (endpoint: mean tumor weight, dose: 6.0 mg/kg/injection, schedule: Q01DX001 (ip), vehicle: carboxymethylcellulose (CMC), higher = larger tumour): 90 % of control
- T/C (endpoint: mean tumor weight, dose: 12.0 mg/kg/injection, schedule: Q01DX001 (ip), vehicle: carboxymethylcellulose (CMC), higher = larger tumour): 52 % of control

Structure (SMILES): C[C@]12CC[C@H](O)C[C@@]1(O)CC[C@@H]1[C@@H]2CC[C@]2(C)[C@@H](c3ccc(=O)oc3)CC[C@]12O
- T/C [1]: 97 % of control
- T/C [2]: 98 % of control
- T/C (endpoint: median survival time, dose: 10.0 mg/kg/injection, schedule: Q01DX009 (ip), vehicle: Klucel (hydroxypropylcellulose) (HPC), higher = longer survival): 104 % of control
- T/C (endpoint: median survival time, dose: 20.0 mg/kg/injection, schedule: Q01DX009 (ip), vehicle: Klucel (hydroxypropylcellulose) (HPC), higher = longer survival): 113 % of control

Structure (SMILES): N#CCC(=O)O
- T/C (endpoint: mean tumor weight, dose: 29.0 mg/kg/injection, schedule: Q01DX011 (ip), vehicle: saline, higher = larger tumour): 103 % of control
- T/C (endpoint: mean tumor weight, dose: 44.0 mg/kg/injection, schedule: Q01DX011 (ip), vehicle: saline, higher = larger tumour): 104 % of control
- T/C (endpoint: mean tumor weight, dose: 66.0 mg/kg/injection, schedule: Q01DX011 (ip), vehicle: other, higher = larger tumour): 47 % of control
- T/C (endpoint: mean tumor weight, dose: 66.0 mg/kg/injection, schedule: Q01DX011 (ip), vehicle: saline, higher = larger tumour): 64 % of control

Structure (SMILES): CC(=O)C(O)N1C(=O)C=CC1=O (stereo unspecified)
- T/C (endpoint: median survival time, dose: 0.31 mg/kg/injection, schedule: Q01DX009 (ip), vehicle: saline, higher = longer survival): 100 % of control
- T/C (endpoint: median survival time, dose: 0.62 mg/kg/injection, schedule: Q01DX009 (ip), vehicle: saline, higher = longer survival): 98 % of control and 105 % of control and 119 % of control
- T/C (endpoint: median survival time, dose: 1.25 mg/kg/injection, schedule: Q01DX009 (ip), vehicle: saline, higher = longer survival): 107 % of control (2×) and 120 % of control
- T/C (endpoint: median survival time, dose: 1.25 mg/kg/injection, schedule: Q02DX009 (ip), vehicle: saline, higher = longer survival): 114 % of control
- T/C (endpoint: median survival time, dose: 2.5 mg/kg/injection, schedule: Q01DX009 (ip), vehicle: saline, higher = longer survival): 90 % of control and 107 % of control
- T/C (endpoint: median survival time, dose: 2.5 mg/kg/injection, schedule: Q02DX009 (ip), vehicle: saline, higher = longer survival): 104 % of control
- T/C (endpoint: median survival time, dose: 5.0 mg/kg/injection, schedule: Q01DX009 (ip), vehicle: saline, higher = longer survival): 97 % of control and 100 % of control and 120 % of control
- T/C (endpoint: median survival time, dose: 5.0 mg/kg/injection, schedule: Q02DX009 (ip), vehicle: saline, higher = longer survival): 105 % of control

Structure (SMILES): CC1CCOS(=O)O1 (stereo unspecified)
- T/C (endpoint: mean tumor weight, dose: 10.0 mg/kg/injection, schedule: Q01DX011 (ip), vehicle: saline, higher = larger tumour): 66 % of control
- T/C (endpoint: mean tumor weight, dose: 20.0 mg/kg/injection, schedule: Q01DX011 (ip), vehicle: saline, higher = larger tumour): 63 % of control
- T/C (endpoint: mean tumor weight, dose: 40.0 mg/kg/injection, schedule: Q01DX011 (ip), vehicle: saline, higher = larger tumour): 65 % of control

Structure (SMILES): CCNCc1cc(Nc2cc(C)nc(/N=C(\N)Nc3ccc(Cl)c(Cl)c3)n2)ccc1OC
- T/C (endpoint: median survival time, dose: 0.8 mg/kg/injection, schedule: Q01DX009 (ip), vehicle: Klucel (hydroxypropylcellulose) (HPC), higher = longer survival): 96 % of control
- T/C (endpoint: median survival time, dose: 1.56 mg/kg/injection, schedule: Q01DX009 (ip), vehicle: Klucel (hydroxypropylcellulose) (HPC), higher = longer survival): 100 % of control
- T/C (endpoint: median survival time, dose: 3.12 mg/kg/injection, schedule: Q01DX009 (ip), vehicle: Klucel (hydroxypropylcellulose) (HPC), higher = longer survival): 96 % of control

Structure (SMILES): OCN(CO)c1nc(N(CO)CO)nc(N(CO)CO)n1
- T/C (endpoint: median survival time, dose: 6.25 mg/kg/injection, schedule: Q01DX009 (ip), vehicle: saline with Tween-80, higher = longer survival): 109 % of control
- T/C (endpoint: median survival time, dose: 12.5 mg/kg/injection, schedule: Q01DX009 (ip), vehicle: saline with Tween-80, higher = longer survival): 107 % of control
- T/C (endpoint: median survival time, dose: 25.0 mg/kg/injection, schedule: Q01DX009 (ip), vehicle: saline with Tween-80, higher = longer survival): 102 % of control

Structure (SMILES): C/C=C(\C)C(=O)O[C@@H]1c2cc3c(cc2-c2c(cc(OC)c(OC)c2OC)[C@@H]2C(=O)OC[C@@H]12)OCO3
- T/C [1]: 99 % of control
- T/C [2]: 110 % of control
- T/C (endpoint: median survival time, dose: 5.0 mg/kg/injection, schedule: Q01DX009 (ip), vehicle: Klucel (hydroxypropylcellulose) (HPC), higher = longer survival): 101 % of control
